The text below walks through data of US20250032485A1, “APPLICATION OF IMIDAZO [1,2-A] PYRAZINE COMPOUNDS OR THEIR PHARMACEUTICALLY ACCEPTABLE SALTS IN THE PREPARATION OF ANTI-CORONAVIRUS DRUGS” (GUANGZHOU MEDICAL UNIVERSITY, priority 2023, published 2025).

Where two headings read alike, the source gives them in different places.

Assay [1] deals with T1, PLpro of SARS-CoV-2 (Severe acute respiratory syndrome coronavirus 2, UniProt P0DTD1). Kind of assay: Enzyme activity test in vitro: inhibition of PLpro at fixed concentration 50 μM (RLRGG-AMC substrate). It is filed as biochemical. Particulars: read-out: Inhibition rate at 50 μM (%).
Assay [2] deals with T1, PLpro of SARS-CoV-2. Kind of assay: IC50 determination of inhibition of PLpro activity (RLRGG-AMC substrate). As to conditions: 13 concentrations 100 μM to 0.0244 μM, GraphPad Prism. It counts as biochemical.
Setting [3] is: compound 50 μM, 10 min preincubation at 37° C., Table 1.

As a reminder, the inhibition is the percentage by which the read-out fell short of the control. The IC50 is the concentration that gives 50% inhibition. A low value points to greater potency.

Take `COC(=O)c1cccc(Nc2c(-c3cccc(Cl)c3)nc3cnccn23)c1` [P19456, methyl 3-[[2-(3-chlorophenyl)imidazo[1,2-a]pyrazin-3-yl]amino] benzoate]: the inhibition at 50 µM on PLpro of SARS-CoV-2 [1] (setting [3]) was determined as 47.8%. Further, it took 60.9 µM to reach half-maximal inhibition on PLpro of SARS-CoV-2 [2] (IC50). For the compound `O=C(O)c1ccc(Nc2c(-c3ccc(Cl)cc3)nc3cnccn23)cc1` [P18224, 4-[[2-(4-chlorophenyl)imidazo[1,2-a]pyrazin-3-yl]amino] benzoic acid], the inhibition at 50 µM on PLpro of SARS-CoV-2 [1] (setting [3]) worked out at 54.6%. On PLpro of SARS-CoV-2 [2], this compound had an IC50 of 38.3 µM. `COc1ccc(-c2nc3cnccn3c2Nc2cccc(C(N)=O)c2)cc1` [P22475, 3-[[2-(4-methoxy-phenyl)imidazo[1,2-a]pyrazin-3-yl]amino] benzamide]: the inhibition at 50 µM at PLpro of SARS-CoV-2 [1] (setting [3]) amounted to 60.1%. The IC50 on PLpro of SARS-CoV-2 [2] was determined as 16.6 µM. The corresponding values for `CSc1ccc(-c2nc3cnccn3c2Nc2ccc(C(=O)O)cc2)cc1` [P19445, 4-[[2-(4-methyl-sulfanylphenyl)imidazo [1,2-a]pyrazin-3-yl]amino]benzoic acid] are 50.2% and 47.6 µM.

On to `COc1ccc(-c2nc3cnccn3c2Nc2ccc(C(=O)NCc3ccco3)cc2)cc1` [P22445, N-(furan-2-ylmethyl)-4-[[2-(4-methoxy-phenyl)imidazo[1,2-a]pyrazin-3-yl]amino]benzamide], for which the inhibition at 50 µM at PLpro of SARS-CoV-2 [1] (setting [3]) worked out at 62.3%. At PLpro of SARS-CoV-2 [2], the 50% inhibitory concentration (IC50) was 13.9 µM. The corresponding values for `COC(=O)c1cccc(Nc2c(-c3ccc(N(C)C)cc3)nc3cnccn23)c1` [P19446, methyl 3-[[2-[4-(dimethyl-amino)phenyl]imidazo [1,2-a]pyrazin-3-yl]amino]benzoate] are 65.8% and 30.3 µM. As to `CSc1ccc(-c2nc3cnccn3c2Nc2cccc(C(=O)NCc3ccco3)c2)cc1` [P22479], the inhibition at 50 µM at PLpro of SARS-CoV-2 [1] (setting [3]) was 58.8%. This compound registered an IC50 on PLpro of SARS-CoV-2 [2] of 35.4 µM. The corresponding values for `COc1ccc(-c2nc3cnccn3c2Nc2ccc(C(N)=O)cc2)cc1OC` [P19454, 4-[[2-(3,4-dimethoxy-phenyl)imidazo [1,2-a]pyrazin-3-yl]amino]benzamide] are 53.8% and 36.8 µM. The corresponding values for `Cc1ccc(-c2nc3cnccn3c2Nc2ccc(C(N)=O)cc2)cc1` [P19452, 4-[[2-(4-methyl-phenyl)imidazo[1,2-a]pyrazin-3-yl]amino] benzamide] are 53.1% and 28.4 µM. For `Cc1ccc(-c2nc3cnccn3c2Nc2ccc(C(=O)N3CCOCC3)cc2)cc1` [P22415, [4-[[2-(4-methyl-phenyl)imidazo[1,2-a]pyrazin-3-yl]amino]phenyl]-morpholin-4-ylmethanone], the inhibition at 50 µM on PLpro of SARS-CoV-2 [1] (setting [3]) worked out at 63.3%. On PLpro of SARS-CoV-2 [2], the midpoint of inhibition, the IC50, lay at 49.7 µM. The corresponding values for `COc1cc(-c2nc3cnccn3c2Nc2ccc(C(=O)O)cc2)ccc1O` [P19455, 4-[[2-(4-hydroxy-3-methoxyphenyl)imidazo[1,2-a]pyrazin-3-yl]amino]benzoic acid] are 53.1% and 26.6 µM. The corresponding values for `COc1ccc(Nc2c(-c3ccc(OC)c(OC)c3)nc3cnccn23)cc1OC` [P19453, N,2-bis(3,4-dimethoxy-phenyl)imidazo [1,2-a]pyrazin-3-amine] are 65.5% and 6.45 µM. The corresponding values for `O=C(NC1CCCCC1)c1cccc(Nc2c(-c3ccc(Cl)cc3)nc3cnccn23)c1` [P22438, 3-[[2-(4-chlorophenyl)imidazo[1,2-a]pyrazin-3-yl]amino]-N-cyclohexyl-benzamide] are 54.2% and 40.8 µM. Turning to `Cc1ccc(-c2nc3cnccn3c2Nc2ccc(C(=O)NCCN3CCOCC3)cc2)cc1` [P22423, 4-[[2-(4-methylphenyl)imidazo[1,2-a]pyrazin-3-yl]amino]-N-(2-morpholin-4-ylethyl)benzamide], the inhibition at 50 µM at PLpro of SARS-CoV-2 [1] (setting [3]) is 54.5%. Moreover, inhibition at PLpro of SARS-CoV-2 [2] was half-maximal at 33.5 µM (IC50). With `COc1ccc(-c2nc3cnccn3c2Nc2ccc(C(N)=O)cc2)cc1` [P19442, 4-[[2-(4-methoxyphenyl)imidazo[1,2-a]pyrazin-3-yl]amino] benzamide], on PLpro of SARS-CoV-2 [1] (setting [3]), the inhibition at 50 µM amounted to 61.1%. For the same compound, half-maximal inhibition against PLpro of SARS-CoV-2 [2] (IC50) required 43.2 µM. The corresponding values for `CCNC(=O)c1ccc(Nc2c(-c3ccc(OC)cc3)nc3cnccn23)cc1` [P22471, Nethyl-4-[[2-(4-methoxyphenyl)imidazo[1,2-a]pyrazin-3-yl]amino]benzamide] are 52.8% and 35.1 µM. The corresponding values for `COc1ccc(-c2nc3cnccn3c2Nc2ccc(C(=O)NC3CCCCC3)cc2)cc1` [P22414, N-cyclohexyl-4-[[2-(4-methoxyphenyl)imidazo[1,2-a]pyrazin-3-yl]amino]benzamide] are 51.1% and 45.9 µM. Turning to `CSc1ccc(-c2nc3cnccn3c2Nc2ccc(C(N)=O)cc2)cc1` [P19462, 4-[[2-(4-methyl-sulfanylphenyl)imidazo [1,2-a]pyrazin-3-yl]amino]benzamide], at PLpro of SARS-CoV-2 [1] (setting [3]), the inhibition at 50 µM turned out to be 65%. The compound also registered an IC50 against PLpro of SARS-CoV-2 [2] of 26 µM. As to `CC(C)NC(=O)c1cccc(Nc2c(-c3ccc(Cl)cc3)nc3cnccn23)c1` [P22407, 3-[[2-(4-chlorophenyl)imidazo[1,2-a]pyrazin-3-yl]amino]-N-propan-2-ylbenzamide], at PLpro of SARS-CoV-2 [1], the inhibition at 50 µM came to 32.6%. With `O=C(NCCN1CCOCC1)c1ccc(Nc2c(-c3ccccc3)nc3cnccn23)cc1` [P22472, N-(2-morpholin-4-ylethyl)-4-[(2-phenyl-imidazo[1,2-a]pyrazin-3-yl)amino] benzamide], the inhibition at 50 µM on PLpro of SARS-CoV-2 [1] was 33%. `O=C(O)c1cccc(Nc2c(-c3ccccc3O)nc3cnccn23)c1` [P37318, 3-[[2-(2-hydroxy-phenyl)imidazo[1,2-a]pyrazin-3-yl]amino] benzoic acid]: the inhibition at 50 µM at PLpro of SARS-CoV-2 [1] turned out to be 15.9%.

`COc1ccc(-c2nc3cnccn3c2Nc2ccc(C(C)C)cc2)cc1OC` [P19473, 2-(3,4-dimethoxy-phenyl)-N-(4-propan-2-ylphenyl)imidazo [1,2-a]pyrazin-3-amine]: the inhibition at 50 µM on PLpro of SARS-CoV-2 [1] was 37.5%. On the same count and under the same terms, for `COC(=O)c1cccc(Nc2c(-c3ccccc3O)nc3cnccn23)c1` [P37347, methyl 3-[[2-(2-hydroxy-phenyl)imidazo[1,2-a]pyrazin-3-yl]amino] benzoate] the value was 25%; for `CCNC(=O)c1ccc(Nc2c(-c3ccc(Cl)cc3)nc3cnccn23)cc1` [P22402, 4-[[2-(4-chlorophenyl)imidazo[1,2-a]pyrazin-3-yl]amino]-N-ethylbenzamide], 31.3%. Same read-out and setting: for `O=C(NC1CCCCC1)c1cccc(Nc2c(-c3ccc(F)cc3)nc3cnccn23)c1` [P22481, N-cyclohexyl-3-[[2-(4-fluorophenyl)imidazo[1,2-a]pyrazin-3-yl]amino] benzamide] the value was 11.8%; for `O=C(O)c1cccc(Nc2c(-c3ccc([N+](=O)[O-])cc3)nc3cnccn23)c1` [P37328, 3-[[2-(4-nitrophenyl)imidazo[1,2-a]pyrazin-3-yl]amino] benzoic acid], 17.2%; for `COC(=O)c1ccc(-c2nc3cnccn3c2NC2CCCC2)cc1` [P37287, methyl 4-[3-(cyclopentyl-amino)imidazo[1,2-a]pyrazin-2-yl] benzoate], 21%. For the compound `COc1ccc(-c2nc3cnccn3c2Nc2ccc(C(=O)NC(C)C)cc2)cc1OC` [P22420, 4-[[2-(3,4-dimethoxy-phenyl)imidazo[1,2-a]pyrazin-3-yl]amino]-N-propan-2-ylbenzamide], on PLpro of SARS-CoV-2 [1], the inhibition at 50 µM was determined as 43.9%. Same read-out and setting: for `Cc1ccc(-c2nc3cnccn3c2Nc2cccc(C(=O)O)c2)cc1` [P37308, 3-[[2-(4-methyl-phenyl)imidazo[1,2-a]pyrazin-3-yl]amino] benzoic acid] the value was 20.8%; for `COC(=O)c1cccc(Nc2c(-c3ccc(SC)cc3)nc3cnccn23)c1` [P19495, methyl 3-[[2-(4-methyl-sulfanylphenyl)imidazo [1,2-a]pyrazin-3-yl]amino]benzoate], 41.7%. The same measure, in the same setting: for `COC(=O)c1cccc(Nc2c(-c3ccc(F)cc3)nc3cnccn23)c1` [P37357, methyl 3-[[2-(4-fluorophenyl)imidazo[1,2-a]pyrazin-3-yl]amino] benzoate] the value was 4.32%. As to `Fc1ccc(-c2nc3cnccn3c2Nc2ccc(Cl)cc2)cc1` [P37356, N-(4-chlorophenyl)-2-(4-fluorophenyl) imidazo[1,2-a] pyrazin-3-amine], the inhibition at 50 µM at PLpro of SARS-CoV-2 [1] turned out to be 3.18%. Same read-out and setting: in the case of `Cc1ccc(-c2nc3cnccn3c2Nc2ccc(C(=O)NC(C)C)cc2)cc1` [P22452, 4-[[2-(4-methylphenyl)imidazo[1,2-a]pyrazin-3-yl]amino]-N-propan-2-ylbenzamide] it was 33.6%. Regarding `CSc1ccc(-c2nc3cnccn3c2Nc2cccc(C(=O)O)c2)cc1` [P37298, 3-[[2-(4-methyl-sulfanylphenyl)imidazo [1,2-a]pyrazin-3-yl]amino]benzoic acid], at PLpro of SARS-CoV-2 [1], the inhibition at 50 µM was determined as 33.6%. The same measure, in the same setting: for `CCNC(=O)c1ccc(-c2nc3cnccn3c2Nc2c(C)cccc2CC)cc1` [P22511, N-ethyl-4-[3-(2-ethyl-6-methylanilino)imidazo[1,2-a]pyrazin-2-yl]benzamide] the value was 27.7%; for `CNC(=O)c1cccc(Nc2c(-c3ccccc3)nc3cnccn23)c1` [P22416, N-methyl-3-[(2-phenylimidazo[1,2-a]pyrazin-3-yl)amino] benzamide], 30.2%. Take `CN(C)CCNC(=O)c1ccc(Nc2c(-c3ccccc3)nc3cnccn23)cc1` [P22433, N-[2-(dimethylamino)ethyl]-4-[(2-phenyl-imidazo[1,2-a]pyrazin-3-yl)amino] benzamide]: at PLpro of SARS-CoV-2 [1], the inhibition at 50 µM turned out to be 30.5%. On to `CCOC(=O)c1ccc(Nc2c(-c3cc(Br)ccc3O)nc3cnccn23)cc1` [P22542, ethyl 4-[[2-(5-bromo-2-hydroxyphenyl)imidazo [1,2-a]pyrazin-3-yl]amino]benzoate], for which the inhibition at 50 µM at PLpro of SARS-CoV-2 [1] stood at 31.5%.
